We go through 21 compounds from patent US11339171B2, “MDM2 inhibitors” (Gan & Lee Pharmaceuticals, priority 2017, dated 2022).

In assay [1] the test system is human osteosarcoma cell line SJSA-1. The assay can be described thus: Inhibition of proliferation of human osteosarcoma cell line SJSA-1 (DAPI staining, In Cell Analyzer).
Another assay addresses T1, MDM2 (Homo sapiens, UniProt Q00987).
T1 construct: made in house
The assay can be described thus: Inhibition test of MDM2-P53 (GST-MDM2, Biotin-P53, Anti-GST-Tb, SA-XL665). The class given is binding. Summed up:
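Binding was measured by TR-FRET with GST-MDM2 at 4 nM final in PBS with 0.1% BSA, 5 mM DTT and 1 mM AEBSF. Compounds were tested as twelve-point 5-fold dilutions and incubated with the detection mix for 90 min at 25 °C with shaking before plate-reader reading and curve fitting.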

Setting [2] is: Homo sapiens, SJSA-1, 72 h, read-out: IC50 (nM), inhibitory activity on proliferation of human osteosarcoma cell line SJSA-1, SJSA-1, incubated 72 h.

Where two headings read alike, the source gives them in different places.

T1 sequence (Q00987 whole entry): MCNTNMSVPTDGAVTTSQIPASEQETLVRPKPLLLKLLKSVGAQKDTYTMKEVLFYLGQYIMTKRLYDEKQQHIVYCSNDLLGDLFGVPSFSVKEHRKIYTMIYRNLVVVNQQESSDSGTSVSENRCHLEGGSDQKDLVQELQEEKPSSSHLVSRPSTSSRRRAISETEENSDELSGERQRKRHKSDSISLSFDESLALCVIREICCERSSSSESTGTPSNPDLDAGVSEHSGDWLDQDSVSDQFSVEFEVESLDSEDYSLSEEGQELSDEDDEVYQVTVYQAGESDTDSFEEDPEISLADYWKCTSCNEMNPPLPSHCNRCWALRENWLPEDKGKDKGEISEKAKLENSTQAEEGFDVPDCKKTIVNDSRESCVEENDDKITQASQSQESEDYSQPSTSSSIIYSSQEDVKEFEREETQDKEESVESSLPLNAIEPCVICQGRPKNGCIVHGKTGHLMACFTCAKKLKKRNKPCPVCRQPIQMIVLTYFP

On to `COc1ncc(-c2nc3c(n2C(C)C)[C@]2(C(=O)Nc4cc(Cl)ccc42)N(c2cc(Cl)ccc2OC)C3=O)c(OC)n1` [Example R-17, (R)-6-chloro-5′-(5-chloro-2-methoxyphenyl)-2′-(2,4-dimethoxypyrimidin-5-yl)-3′-isopropyl-3′H-spiro[dihydroindole-3,4′-pyrrolo[3,4-d]imidazole]-2,6′(5′H)-dione], for which the IC50 came out at 1310 nM in assay [1] (setting [2]); 2440 nM in assay [1] (read-out: IC50 (nM), inhibitory activity on proliferation of human osteosarcoma cell line SJSA-1, SJSA-1, incubated 72 h); 0.0494 µM at MDM2.
Consider `COc1ccncc1-c1nc2c(n1C(C)C)[C@]1(C(=O)Nc3cc(Cl)ccc31)N(c1cc(Cl)ccc1C)C2=O` [Example R-18, (R)-6-chloro-5′-(5-chloro-2-methylphenyl)-3′-isopropyl-2′-(4-methoxypyridin-3-yl)-3′H-spiro[dihydroindole-3,4′-pyrrolo[3,4-d]imidazole]-2,6′(5′H)-dione], for which the results for the IC50 (in assay [1] (setting [2]); on MDM2) were 1620 nM and 0.158 µM, respectively.
With `COc1ncc(-c2nc3c(n2C(C)C)[C@]2(C(=O)Nc4cc(Cl)ccc42)N(c2ccc(C)c(Cl)c2)C3=O)c(OC)n1` [Example R-20, (R)-6-chloro-5′-(3-chloro-4-methylphenyl)-2′-(2,4-dimethoxypyrimidin-5-yl)-3′-isopropyl-3′H-spiro[dihydroindole-3,4′-pyrrolo[3,4-d]imidazole]-2,6′(5′H)-dione], the IC50 in assay [1] (setting [2]) is 4010 nM; against MDM2, 0.256 µM.
For `CNC(=O)c1ccc(OC)c(-c2nc3c(n2C(C)C)[C@]2(C(=O)Nc4cc(Cl)ccc42)N(c2cc(Cl)ccc2C)C3=O)c1` [Example R-21, (R)-3-(6-chloro-5′-(5-chloro-2-methylphenyl)-3′-isopropyl-2,6′-dioxo-5′,6′-dihydro-3′H-spiro[dihydroindole-3,4′-pyrrolo[3,4-d]imidazole]-2′-yl)-4-methoxy-N-methylbenzamide], the IC50 in assay [1] (setting [2]) is 5230 nM; against MDM2 it was 0.223 µM.
Consider `COc1ccc(C(=O)N(C)C)cc1-c1nc2c(n1C(C)C)[C@]1(C(=O)Nc3cc(Cl)ccc31)N(c1cc(Cl)ccc1C)C2=O` [Example R-22, (R)-3-(6-chloro-5′-(5-chloro-2-methylphenyl)-3′-isopropyl-2,6′-dioxo-5′,6′-dihydro-3′H-spiro[dihydroindole-3,4′-pyrrolo[3,4-d]imidazole]-2′-yl)-4-methoxy-N,N-dimethylbenzamide], for which the results for the IC50 (in assay [1] (setting [2]); against MDM2) were 6950 nM and 0.627 µM, respectively.
For `COc1cc(N(C)C)ccc1-c1nc2c(n1C(C)C)[C@]1(C(=O)Nc3cc(Cl)ccc31)N(c1cc(Cl)ccc1C)C2=O` [Example R-23, (R)-6-chloro-5′-(5-chloro-2-methylphenyl)-2′-(4-(dimethylamino)-2-methoxyphenyl)-3′-isopropyl-3′H-spiro[dihydroindole-3,4′-pyrrolo[3,4-d]imidazole]-2,6′(5′H)-dione], the values for the IC50 (in assay [1] (setting [2]); on MDM2) were 354 nM and 0.175 µM, respectively.
With `COc1cc(C)ccc1-c1nc2c(n1C(C)C)[C@]1(C(=O)Nc3cc(Cl)ccc31)N(c1cc(Cl)ccc1C)C2=O` [Example R-24, (R)-6-chloro-5′-(5-chloro-2-methylphenyl)-3′-isopropyl-2′-(2-methoxy-4-methylphenyl)-3′H-spiro[dihydroindole-3,4′-pyrrolo[3,4-d]imidazole]-2,6′(5′H)-dione], the IC50 was 872 nM in assay [1] (setting [2]) and 0.392 µM against MDM2.
On to `CNc1ccc(-c2nc3c(n2C(C)C)[C@]2(C(=O)Nc4cc(Cl)ccc42)N(c2cc(Cl)ccc2C)C3=O)c(OC)c1` [Example R-25, (R)-6-chloro-5′-(5-chloro-2-methylphenyl)-3′-isopropyl-2′-(2-methoxy-4-(methylamine)phenyl)-3′H-spiro[dihydroindole-3,4′-pyrrolo[3,4-d]imidazole]-2,6′(5′H)-dione], for which the IC50 in assay [1] (setting [2]) stood at 265 nM; against MDM2, 0.0519 µM.
On to `CCn1c(-c2cnc(OC)nc2OC)nc2c1[C@]1(C(=O)Nc3cc(Cl)ccc31)N(c1cc(Cl)ccc1C)C2=O` [Example R-26, (R)-6-chloro-5′-(5-chloro-2-methylphenyl)-2′-(2,4-dimethoxypyrimidin-5-yl)-3′-ethyl-3′H-spiro[dihydroindole-3,4′-pyrrolo[3,4-d]imidazole]-2,6′(5′H)-dione], for which the IC50 in assay [1] (setting [2]) was determined as 3650 nM; on MDM2, 0.236 µM.
The corresponding values for `COc1ccc(C(N)=O)cc1-c1nc2c(n1C(C)C)[C@]1(C(=O)Nc3cc(Cl)ccc31)N(c1cc(Cl)ccc1C)C2=O` [Example R-29, (R)-3-(6-chloro-5′-(5-chloro-2-methylphenyl)-3′-isopropyl-2,6′-dioxo-5′,6′-dihydro-3′H-spiro[dihydroindole-3,4′-pyrrolo[3,4-d]imidazole]-2′-yl)-4-methoxybenzamide] are 10900 nM and 0.0936 µM.
As to `Cc1ccc(Cl)cc1N1C(=O)c2nc(-c3ccccc3OC(F)(F)F)n(C(C)C)c2[C@]12C(=O)Nc1cc(Cl)ccc12` [Example R-31, (R)-6-chloro-5′-(5-chloro-2-methylphenyl)-3′-isopropyl-2′-(2-(trifluoromethoxy)phenyl)-3′H-spiro[dihydroindole-3,4′-pyrrolo[3,4-d]imidazole]-2,6′(5′H)-dione], the IC50 in assay [1] (setting [2]) is 3580 nM; at MDM2, 1.4 µM.
With `COc1cc(C(C)C)ccc1-c1nc2c(n1C(C)C)[C@]1(C(=O)Nc3cc(Cl)ccc31)N(c1cc(Cl)ccc1C)C2=O` [Example R-32, (R)-6-chloro-5′-(5-chloro-2-methylphenyl)-3′-isopropyl-2′-(4-isopropyl-2-methoxyphenyl)-3′H-spiro[dihydroindole-3,4′-pyrrolo[3,4-d]imidazole]-2,6′(5′H)-dione], the results for the IC50 (in assay [1] (setting [2]); at MDM2) were 8200 nM and 1.1 µM, respectively.
The corresponding values for `CCc1ccc(-c2nc3c(n2C(C)C)[C@]2(C(=O)Nc4cc(Cl)ccc42)N(c2cc(Cl)ccc2C)C3=O)c(OC)c1` [Example R-33, (R)-6-chloro-5′-(5-chloro-2-methylphenyl)-2′-(4-ethyl-2-methoxyphenyl)-3′-isopropyl-3′H-spiro[dihydroindole-3,4′-pyrrolo[3,4-d]imidazole]-2,6′(5′H)-dione] are 4890 nM and 0.592 µM.
The matching figures for `COc1cc(-c2nc3c(n2C(C)C)[C@]2(C(=O)Nc4cc(Cl)ccc42)N(c2cc(Cl)ccc2C)C3=O)c(OC)cn1` [Example R-40, (R)-6-chloro-5′-(5-chloro-2-methylphenyl)-2′-(2,5-dimethoxypyridin-4-yl)-3′-isopropyl-3′H-spiro[dihydroindole-3,4′-pyrrolo[3,4-d]imidazole]-2,6′(5′H)-dione]: 3090 nM and 0.322 µM.
As for `COc1ncc(-c2nc3c(n2C(C)C)[C@]2(C(=O)Nc4cc(Cl)ccc42)N(c2cc(Cl)cnc2C)C3=O)c(OC)n1` [Example R-42, (R)-6-chloro-5′-(5-chloro-2-methylpyridin-3-yl)-2′-(2,4-dimethoxypyrimidin-5-yl)-3′-isopropyl-3′H-spiro[dihydroindole-3,4′-pyrrolo[3,4-d]imidazole]-2,6′(5′H)-dione], the IC50 was found to be 4560 nM in assay [1] (setting [2]) and 0.364 µM on MDM2.
The matching figures for `COc1ncc(-c2nc3c(n2C(C)C)[C@]2(C(=O)Nc4cc(Cl)ccc42)N(c2cc(Cl)ccc2F)C3=O)c(OC)n1` [Example R-44, (R)-6-chloro-5′-(5-chloro-2-fluorophenyl)-2′-(2,4-dimethoxypyrimidin-5-yl)-3′-isopropyl-3′H-spiro[dihydroindole-3,4′-pyrrolo[3,4-d]imidazole]-2,6′(5′H)-dione]: 1330 nM and 0.0511 µM.
As for `COc1ncc(-c2nc3c(n2C(C)C)[C@]2(C(=O)Nc4cc(Cl)ccc42)N(c2cc(F)cc(Cl)c2)C3=O)c(OC)n1` [Example R-45, (R)-6-chloro-5′-(3-chloro-5-fluorophenyl)-2′-(2,4-dimethoxypyrimidin-5-yl)-3′-isopropyl-3′H-spiro[dihydroindole-3,4′-pyrrolo[3,4-d]imidazole]-2,6′(5′H)-dione], the IC50 in assay [1] (setting [2]) was determined as 4310 nM; on MDM2 it was 0.171 µM.
Consider `COc1cc(CN(C)C)ccc1-c1nc2c(n1C(C)C)[C@]1(C(=O)Nc3cc(Cl)ccc31)N(c1cc(Cl)ccc1C)C2=O` [Example R-47, (R)-6-chloro-5′-(5-chloro-2-methylphenyl)-2′-(4-((dimethylamino)methyl)-2-methoxyphenyl)-3′-isopropyl-3′H-spiro[dihydroindole-3,4′-pyrrolo[3,4-d]imidazole]-2,6′(5′H)-dione], for which the IC50 in assay [1] (setting [2]) is 3850 nM; at MDM2, 0.21 µM.
For `COc1ncc(-c2nc3c(n2C(C)C)[C@]2(C(=O)Nc4cc(Cl)ccc42)N(c2ccc(OC)c(Cl)c2)C3=O)c(OC)n1` [Example R-48, (R)-6-chloro-5′-(3-chloro-4-methoxyphenyl)-2′-(2,4-dimethoxypyrimidin-5-yl)-3′-isopropyl-3′H-spiro[dihydroindole-3,4′-pyrrolo[3,4-d]imidazole]-2,6′(5′H)-dione], the IC50 in assay [1] (setting [2]) came to 3630 nM; against MDM2, 0.196 µM.
Take `COc1cc(N)ccc1-c1nc2c(n1C(C)C)[C@]1(C(=O)Nc3cc(Cl)ccc31)N(c1cc(Cl)ccc1C)C2=O` [Example R-49, (R)-2′-(4-amino-2-methoxyphenyl)-6-chloro-5′-(5-chloro-2-methylphenyl)-3′-isopropyl-3′H-spiro[dihydroindole-3,4′-pyrrolo[3,4-d]imidazole]-2,6′(5′H)-dione]: the IC50 in assay [1] (setting [2]) stood at 1490 nM; at MDM2, 0.0714 µM.
On to `COc1ncc(-c2cc3c(n2C(C)C)[C@]2(C(=O)Nc4cc(Cl)ccc42)N(c2cc(Cl)ccc2C)C3=O)c(OC)n1` [Example R-50, (R)-6-chloro-5′-(5-chloro-2-methylphenyl)-2′-(2,4-dimethoxypyrimidin-5-yl)-1′-isopropyl-1′H-spiro[dihydroindole-3,6′-pyrrolo[3,4-b]pyrrole]-2,4′(5′H)-dione], for which the figures for the IC50 (in assay [1] (setting [2]); on MDM2) were 8430 nM and 20.4 µM, respectively.
